Measurements: the supplement of paper PMC8617591

Tests used:
[1] = system: Mycobacterium tuberculosis Erdman (autoluminescent); experiment: total FIC50 (Loewe) at 50% inhibition, three-drug combination (log2); higher = more antagonistic
Protocol: (§1)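 DiaMOND equipotent three-drug combination dose responses (10 doses, 1.5- or 2-fold spacing, centred on IC90) against autoluminescent M. tuberculosis Erdman in 8 in vitro models. Read-out is OD600, or luminescence for the intracellular and dormancy models, normalised to untreated wells. Hill-fit Einf, AUC25 and GRinf are potency metrics; FIC50 and FIC90 are total Loewe fractional inhibitory concentrations as log2 (negative = synergy).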

[2] = system: Mycobacterium tuberculosis Erdman (autoluminescent); experiment: total FIC90 (Loewe) at 90% inhibition, three-drug combination (log2); higher = more antagonistic
Protocol: as §1

[3] = system: Mycobacterium tuberculosis Erdman (autoluminescent); experiment: AUC25, normalised area under dose response up to IC25 (three-drug combination) (fraction (0-1)); higher = more potent at low dose
Protocol: as §1

[4] = system: Mycobacterium tuberculosis Erdman (autoluminescent); experiment: Einf, fitted maximum growth inhibition of three-drug combination (fraction); higher = stronger maximal inhibition
Protocol: as §1

[5] = system: Mycobacterium tuberculosis Erdman (autoluminescent); experiment: GRinf, maximum normalised growth rate inhibition (three-drug combination) (unitless (-1 to 1)); higher = less effect (negative = killing)
Protocol: as §1

CC(=O)NC[C@H]1CN(c2ccc(N3CCOCC3)c(F)c2)C(=O)O1 [linezolid] + O=[N+]([O-])c1cn2c(n1)OC[C@@H](OCc1ccc(OC(F)(F)F)cc1)C2 [pretomanid] + NC(=O)c1cnccn1 [pyrazinamide]
Conditions	AUC25, [3]	Einf, [4]	GRinf, [5]	total FIC50, [1]	total FIC90, [2]
in vitro model: acidic pH 5.7, time point: constant (~7 days, model-specific)	0.0949	0.856	-0.473	0.268	–
in vitro model: acidic pH 5.7, time point: terminal (~4-5 doublings, model-specific)	0.0835	0.975	-0.473	0.91	-0.88
in vitro model: intracellular J774, time point: constant = terminal	–	0.986	-0.287	–	0.7

Conditions	AUC25, [3]	Einf, [4]	GRinf, [5]	total FIC50, [1]	total FIC90, [2]
in vitro model: butyrate, time point: constant (~7 days, model-specific)	0.104	0.885	0.0996	-0.0692	–
in vitro model: butyrate, time point: terminal (~4-5 doublings, model-specific)	0.0881	0.929	0.102	-0.254	0.667
in vitro model: cholesterol 0.05 mM, time point: constant (~7 days, model-specific)	0.14	0.706	-0.191	–	–
in vitro model: cholesterol 0.05 mM, time point: terminal (~4-5 doublings, model-specific)	0.145	0.93	-0.318	0.461	–
in vitro model: cholesterol-high 0.2 mM, time point: constant (~7 days, model-specific)	0.108	0.902	-0.152	0.147	–
in vitro model: cholesterol-high 0.2 mM, time point: terminal (~4-5 doublings, model-specific)	0.113	1	-1	0.0501	0.419
in vitro model: dormancy (butyrate + nitrate, low O2), time point: constant (~7 days, model-specific)	0.056	0.907	0.16	0.49	0.622
in vitro model: dormancy (butyrate + nitrate, low O2), time point: terminal (~4-5 doublings, model-specific)	0.0409	0.985	-0.287	0.47	0.511
in vitro model: standard 7H9 glycerol, time point: constant = terminal	0.0884	0.926	0.0609	0.706	–
in vitro model: valerate, time point: constant (~7 days, model-specific)	0.102	0.808	0.0778	-0.628	–
in vitro model: valerate, time point: terminal (~4-5 doublings, model-specific)	0.0792	0.891	0.177	-0.429	1.41

COc1c(N2C[C@@H]3CCCN[C@@H]3C2)c(F)cc2c(=O)c(C(=O)O)cn(C3CC3)c12 [moxifloxacin] + CO[C@H]1/C=C/O[C@@]2(C)Oc3c(C)c(O)c4c(O)c(c(/C=N/N5CCN(C6CCCC6)CC5)c(O)c4c3C2=O)NC(=O)/C(C)=C\C=C\[C@H](C)[C@H](O)[C@@H](C)[C@@H](O)[C@@H](C)[C@H](OC(C)=O)[C@@H]1C [rifapentine] + CO[C@H]1/C=C/O[C@@]2(C)Oc3c(C)c(O)c4c(O)c(c(/C=N/N5CCN(C)CC5)c(O)c4c3C2=O)NC(=O)/C(C)=C\C=C\[C@H](C)[C@H](O)[C@@H](C)[C@@H](O)[C@@H](C)[C@H](OC(C)=O)[C@@H]1C [rifampicin]
Conditions	AUC25, [3]	Einf, [4]	GRinf, [5]	total FIC50, [1]	total FIC90, [2]
in vitro model: acidic pH 5.7, time point: constant (~7 days, model-specific)	0.0724	0.838	0.0128	0.153	–
in vitro model: acidic pH 5.7, time point: terminal (~4-5 doublings, model-specific)	0.0677	0.973	-0.122	0.25	0.137
in vitro model: intracellular J774, time point: constant = terminal	–	0.952	-0.11	–	1.1

Conditions	AUC25, [3]	Einf, [4]	GRinf, [5]	total FIC50, [1]	total FIC90, [2]
in vitro model: butyrate, time point: constant (~7 days, model-specific)	0.102	0.883	0.109	0.138	2.35
in vitro model: butyrate, time point: terminal (~4-5 doublings, model-specific)	0.0922	0.952	0.0591	0.217	0.559
in vitro model: cholesterol 0.05 mM, time point: constant (~7 days, model-specific)	0.101	0.593	0.0182	0.609	–
in vitro model: cholesterol 0.05 mM, time point: terminal (~4-5 doublings, model-specific)	0.0956	0.891	-0.0633	0.426	1.76
in vitro model: cholesterol-high 0.2 mM, time point: constant (~7 days, model-specific)	0.0581	0.825	-0.0146	0.356	–
in vitro model: cholesterol-high 0.2 mM, time point: terminal (~4-5 doublings, model-specific)	0.0631	1	-0.758	0.707	0.468
in vitro model: dormancy (butyrate + nitrate, low O2), time point: constant (~7 days, model-specific)	0.0643	0.868	0.252	0.441	0.199
in vitro model: dormancy (butyrate + nitrate, low O2), time point: terminal (~4-5 doublings, model-specific)	0.0509	0.977	-0.14	0.539	0.615
in vitro model: standard 7H9 glycerol, time point: constant = terminal	0.0451	0.821	0.307	0.381	–
in vitro model: valerate, time point: constant (~7 days, model-specific)	0.0421	0.846	0.0605	0.542	–
in vitro model: valerate, time point: terminal (~4-5 doublings, model-specific)	0.0285	0.934	0.041	0.547	0.3

COc1c(N2C[C@@H]3CCCN[C@@H]3C2)c(F)cc2c(=O)c(C(=O)O)cn(C3CC3)c12 [moxifloxacin] + NC(=O)c1cnccn1 [pyrazinamide] + CO[C@H]1/C=C/O[C@@]2(C)Oc3c(C)c(O)c4c(O)c(c(/C=N/N5CCN(C6CCCC6)CC5)c(O)c4c3C2=O)NC(=O)/C(C)=C\C=C\[C@H](C)[C@H](O)[C@@H](C)[C@@H](O)[C@@H](C)[C@H](OC(C)=O)[C@@H]1C [rifapentine]
Conditions	AUC25, [3]	Einf, [4]	GRinf, [5]	total FIC50, [1]	total FIC90, [2]
in vitro model: acidic pH 5.7, time point: constant (~7 days, model-specific)	0.0979	0.916	-0.164	0.396	–
in vitro model: acidic pH 5.7, time point: terminal (~4-5 doublings, model-specific)	0.0717	0.996	-0.192	0.991	-0.209
in vitro model: intracellular J774, time point: constant = terminal	–	0.968	-0.65	–	0.713

Conditions	AUC25, [3]	Einf, [4]	GRinf, [5]	total FIC50, [1]	total FIC90, [2]
in vitro model: butyrate, time point: constant (~7 days, model-specific)	0.118	0.907	0.0713	0.589	0.846
in vitro model: butyrate, time point: terminal (~4-5 doublings, model-specific)	0.0899	0.961	0.0339	0.781	1.19
in vitro model: cholesterol 0.05 mM, time point: constant (~7 days, model-specific)	0.116	0.617	-0.407	–	–
in vitro model: cholesterol 0.05 mM, time point: terminal (~4-5 doublings, model-specific)	0.0984	0.913	-0.171	1.31	–
in vitro model: cholesterol-high 0.2 mM, time point: constant (~7 days, model-specific)	0.0917	0.947	-0.459	0.921	–
in vitro model: cholesterol-high 0.2 mM, time point: terminal (~4-5 doublings, model-specific)	0.0805	1	-0.837	1.23	1.05
in vitro model: dormancy (butyrate + nitrate, low O2), time point: constant (~7 days, model-specific)	0.0716	0.862	0.214	0.262	0.265
in vitro model: dormancy (butyrate + nitrate, low O2), time point: terminal (~4-5 doublings, model-specific)	0.07	0.979	-0.13	0.473	1.04
in vitro model: standard 7H9 glycerol, time point: constant = terminal	0.0577	0.882	0.0649	–	–
in vitro model: valerate, time point: constant (~7 days, model-specific)	0.0789	0.81	0.162	0.849	–
in vitro model: valerate, time point: terminal (~4-5 doublings, model-specific)	0.0473	0.929	0.0611	0.778	0.693
